Experimental data reported in the NIST ThermoML archive (doi:10.1016/j.jct.2008.10.010).
± gives the expanded uncertainty stated by the source.

Legend:
[1] = 298.15 K; 101.33 kPa; Liquid; Pycnometric method
[2] = refractive index (Na D-line) (dimensionless); conditions: 298.15 K; 101.33 kPa; Liquid; Standard Abbe refractometry

mass density [1]: 679.53 ± 0.65 kg/m3
refractive index [2]: 1.3852 ± 0.0008
Compound: CCCCCCC [heptane]
